Measurements: patent publication US20180110784A1, “SYNTHETIC TLR4 AND TLR7 LIGANDS TO PREVENT, INHIBIT OR TREAT LIVER DISEASE” (The Regents of the University of California, priority 2015, published 2018)
Read-outs that look alike come from different tables or passages of the source.

Columns and labels:
Type in all cases: cell-based
IL-6 = IL-6 activity of TLR4 ligands, mouse; design: unit not given here
IP-10 = IP-10 activity of TLR4 ligands, mouse
TLR4 [1] = molecular target: T1, TLR4 (Mus musculus, UniProt Q9JHF9+Q9QUK6); assay: TLR4 activity, mouse
T1 sequence (Q9QUK6 26-835): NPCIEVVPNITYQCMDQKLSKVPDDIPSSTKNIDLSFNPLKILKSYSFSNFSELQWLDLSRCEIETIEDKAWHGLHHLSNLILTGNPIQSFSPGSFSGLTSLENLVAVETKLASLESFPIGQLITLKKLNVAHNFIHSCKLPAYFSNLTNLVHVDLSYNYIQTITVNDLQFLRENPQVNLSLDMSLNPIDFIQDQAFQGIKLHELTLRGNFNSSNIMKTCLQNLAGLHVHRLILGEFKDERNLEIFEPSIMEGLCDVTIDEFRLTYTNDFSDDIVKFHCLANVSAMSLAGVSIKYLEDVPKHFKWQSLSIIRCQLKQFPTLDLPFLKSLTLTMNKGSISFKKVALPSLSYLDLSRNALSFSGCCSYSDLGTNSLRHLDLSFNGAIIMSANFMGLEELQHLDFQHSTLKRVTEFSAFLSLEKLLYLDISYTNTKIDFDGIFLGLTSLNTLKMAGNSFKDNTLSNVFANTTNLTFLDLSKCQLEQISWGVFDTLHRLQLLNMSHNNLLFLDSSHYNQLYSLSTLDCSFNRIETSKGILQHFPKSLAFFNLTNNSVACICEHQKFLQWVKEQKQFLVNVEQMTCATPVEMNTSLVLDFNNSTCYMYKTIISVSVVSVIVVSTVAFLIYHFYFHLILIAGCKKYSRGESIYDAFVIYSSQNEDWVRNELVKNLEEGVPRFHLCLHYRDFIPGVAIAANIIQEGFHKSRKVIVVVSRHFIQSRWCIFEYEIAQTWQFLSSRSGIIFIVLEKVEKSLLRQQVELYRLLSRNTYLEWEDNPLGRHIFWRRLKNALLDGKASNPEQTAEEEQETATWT
T1 sequence (Q9JHF9 19-160): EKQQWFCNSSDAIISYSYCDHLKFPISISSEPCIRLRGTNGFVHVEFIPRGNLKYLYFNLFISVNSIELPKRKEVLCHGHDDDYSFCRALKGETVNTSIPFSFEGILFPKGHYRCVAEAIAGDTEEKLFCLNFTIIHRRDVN

IL-8 = IL-8 activity of TLR4 ligands, human; design: unit not given here
TLR4 [2] = molecular target: TLR4 (Homo sapiens, UniProt O00206+Q9Y6Y9); assay: TLR4 activity, human
Sequence of TLR4 (Homo sapiens, UniProt O00206+Q9Y6Y9) (O00206 24-839): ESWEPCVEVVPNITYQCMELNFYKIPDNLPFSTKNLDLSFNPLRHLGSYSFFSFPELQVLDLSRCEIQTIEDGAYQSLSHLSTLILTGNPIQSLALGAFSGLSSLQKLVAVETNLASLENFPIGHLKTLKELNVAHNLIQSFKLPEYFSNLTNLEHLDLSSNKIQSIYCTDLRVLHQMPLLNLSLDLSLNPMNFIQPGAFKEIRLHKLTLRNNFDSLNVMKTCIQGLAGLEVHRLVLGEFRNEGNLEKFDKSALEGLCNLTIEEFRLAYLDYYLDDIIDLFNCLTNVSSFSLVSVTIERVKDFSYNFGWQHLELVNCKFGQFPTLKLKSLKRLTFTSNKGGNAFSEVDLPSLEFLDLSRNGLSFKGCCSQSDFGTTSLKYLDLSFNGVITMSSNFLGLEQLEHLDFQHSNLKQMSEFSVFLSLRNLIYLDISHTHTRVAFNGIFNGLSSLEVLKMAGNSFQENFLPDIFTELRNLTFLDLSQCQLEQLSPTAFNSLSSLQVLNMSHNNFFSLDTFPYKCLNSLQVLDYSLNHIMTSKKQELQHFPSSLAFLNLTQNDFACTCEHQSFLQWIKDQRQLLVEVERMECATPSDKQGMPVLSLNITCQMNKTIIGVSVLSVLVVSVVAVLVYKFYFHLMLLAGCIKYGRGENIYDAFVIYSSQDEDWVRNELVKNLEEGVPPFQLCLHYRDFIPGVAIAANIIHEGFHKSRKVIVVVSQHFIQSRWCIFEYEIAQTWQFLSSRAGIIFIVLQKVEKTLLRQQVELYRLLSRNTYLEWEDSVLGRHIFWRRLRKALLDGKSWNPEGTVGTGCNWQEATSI
Sequence of TLR4 (Homo sapiens, UniProt O00206+Q9Y6Y9) (Q9Y6Y9 17-160 limits assumed): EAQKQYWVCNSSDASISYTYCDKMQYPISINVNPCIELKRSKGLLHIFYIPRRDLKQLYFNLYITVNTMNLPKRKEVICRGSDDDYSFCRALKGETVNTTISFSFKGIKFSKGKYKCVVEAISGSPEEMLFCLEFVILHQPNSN

TLR9 signaling = assay: CpG-DNA-induced TLR9 signaling-mediated inflammatory response in isolated Kupffer cells; details: R848 0.5 μM for 16 hours, then CpG-DNA 5 μg/mL for 4 hours
Experimental: It was examined whether 1Z1 (FIG. 7) inhibits TLR9 signaling, which promotes liver diseases, including non-alcoholic steatohepatitis (NASH) and alcoholic liver disease (ALD). Isolated Kupffer cells were treated with 1Z1 (5 μM) or R848 (0.5 μM) for 16 hours followed by stimulation with CpG-DNA (TLR9 ligand; 5 μg/mL) for 4 hours and inflammatory cytokine expression was then measured. Pretreatment with […], 1Z1, and R848 inhibited production of IL-6, TNFα, IL-1β, CCL5, CXCL1, and CXCL2 in Kupffer cells following CpG-DNA treatment (FIG. 18).

Row | Compound | mouse IL-6 (IL-6) | mouse IP-10 (IP-10) | mouse TLR4 (TLR4 [1]; mouse) | human IL-8 (IL-8) | human TLR4 (TLR4 [2]; human) | mouse TLR4 (TLR4 [1]) | human TLR4 (TLR4 [2]) | production of IL-6, TNFα, IL-1β, CCL5, CXCL1, and CXCL2 following CpG-DNA treatment (TLR9 signaling)
1 | CN(C(=O)CSc1nc2c3ccccc3n(C)c2c(=O)n1-c1ccccc1)C1CCCCC1 [Compound 43] | <1 | <1 | 1 | 5 | <1 |  |  | 
2 | CCCCNC(=O)CSc1nc2c([nH]c3ccccc32)c(=O)n1-c1ccccc1 [Compound 23] | 49 | 61 |  | 29 |  | 31 | 32 | 
3 | O=C(CSc1nc2c([nH]c3ccccc32)c(=O)n1-c1ccccc1)NC1CCNCC1 [Compound 34] | <1 | <1 | <1 | 17 | <1 |  |  | 
4 | CCOCc1nc2c(N)nc3ccccc3c2n1CC(C)(C)O [Compound R848] |  |  |  |  |  |  |  | inhibited
5 | COC(=O)CCCn1c2ccccc2c2nc(SCC(=O)NC3CCCCC3)n(-c3ccccc3)c(=O)c21 [Compound 44] | 4 | 19 | 9 | 124 | 19 |  |  | 
